Laboratory results from publication PMC9583092 (ACS Omega, 2022).
Values joined by “and” are separate entries in the source; they are usually repeats but may differ in a detail not shown here. Equal entries are not always repeated. Where two headings read alike, the source gives them in different places. Non-standard residues stand in square brackets, D forms with d. Residues, ends and D or L forms follow the SMILES beside them. *: point of attachment. Gly(N(CH2)2(3-indolyl)) = O=C(O)CNCCc1c[nH]c2ccccc12; Gly(Nα-4-Cl-benzyl) = O=C(O)CNCc1ccc(Cl)cc1; N(4-Br-benzyl)Gly = O=C(O)CNCc1ccc(Br)cc1; N(tridecyl)Gly = CCCCCCCCCCCCCNCC(=O)O; N(4-F-Bzl)Gly = O=C(O)CNCc1ccc(F)cc1; NBzl(4-I)Gly = O=C(O)CNCc1ccc(I)cc1; Gly(N-2-aminoethyl) = NCCNCC(=O)O; NFurfurylGly = O=C(O)CNCc1ccco1; X1 = CCCCCCCCN(CCCCCCCC)CC(=O)*; Gly(N-cHex) = O=C(O)CNC1CCCCC1; X2 = CCCCCCN(CCCCCC)CC(=O)*; Nphe = O=C(O)CNCc1ccccc1; Nlys = NCCCCNCC(=O)O

Columns and labels:
[1] = system: C. neoformans; assay: MIC determination, broth microdilution; assay type: cell-based, Cryptococcus neoformans; details: RPMI-MOPS, 72 h at 35 °C, no visual growth, twofold dilutions 200–1.56 μg/mL, biological triplicate
[2] = result in words; cited from earlier work
[3] = system: C. neoformans; details: RMG8-8 parameters from previously published results; cited from earlier work
[4] = system: HepG2 hepatocellular carcinoma cells; details: human liver cells; RMG8-8 parameters from previously published results; cited from earlier work
[5] = system: C. albicans; details: cited from earlier work
[6] = calculated distribution coefficient at pH 7.4; RMG8-8 parameters from previously published results; cited from earlier work
[7] = system: fungi; details: killed fungi rapidly; cited from earlier work

SMILES: CCCCCCCCCCCCCNCC(=O)N(CC(=O)N(CCCC[N+](C)(C)C)CC(=O)N(CC[N+](C)(C)C)CC(=O)N(CC(N)=O)C1CCCCC1)C1CCCCC1 [Compound 1]
- C. neoformans MIC [1]: 12.5 µg/mL

SMILES: CCCCCCCCCCCCCNCC(=O)N(CC(=O)N(CCCCN)CC(=O)N(CCCCN)CC(=O)N(CC(N)=O)C1CCCCC1)C1CCCCC1 [Compound 2] (H-[N(tridecyl)Gly][Gly(N-cHex)][Nlys][Nlys][Gly(N-cHex)]-NH2)
- C. neoformans MIC [1]: 3.13 µg/mL

SMILES: CCCCCCN(CCCCCC)CC(=O)N(CC(=O)N(CCCCN)CC(=O)N(CCN)CC(=O)N(CC(N)=O)C1CCCCC1)C1CCCCC1 [Compound 6] (X2-[Gly(N-cHex)][Nlys][Gly(N-2-aminoethyl)][Gly(N-cHex)]-NH2)
- C. neoformans MIC [1]: 100 µg/mL

SMILES: CCCCCCCCN(CCCCCCCC)CC(=O)N(CC(=O)N(CCCCN)CC(=O)N(CCN)CC(=O)N(CC(N)=O)C1CCCCC1)C1CCCCC1 [Compound 7] (X1-[Gly(N-cHex)][Nlys][Gly(N-2-aminoethyl)][Gly(N-cHex)]-NH2)
- C. neoformans MIC [1]: 6.25 µg/mL

SMILES: CCCCCCCCCCCCCNCC(=O)N(CC(=O)N(CCCCN)CC(=O)N(CCN)CC(=O)N(CC(N)=O)Cc1ccccc1)Cc1ccccc1 [Compound 15] (H-[N(tridecyl)Gly][Nphe][Nlys][Gly(N-2-aminoethyl)][Nphe]-NH2)
- C. neoformans MIC [1]: 1.56 to 3.13 µg/mL

SMILES: CCCCCCCCCCCCCNCC(=O)N(CC(=O)N(CCCCN)CC(=O)N(CCN)CC(=O)N(CC(N)=O)Cc1ccc(F)cc1)Cc1ccc(F)cc1 [Compound 17] (H-[N(tridecyl)Gly][N(4-F-Bzl)Gly][Nlys][Gly(N-2-aminoethyl)][N(4-F-Bzl)Gly]-NH2)
- C. neoformans MIC [1]: 1.56 to 3.13 µg/mL

SMILES: CCCCCCCCCCCCCNCC(=O)N(CC(=O)N(CCCCN)CC(=O)N(CCN)CC(=O)N(CC(N)=O)Cc1ccc(Cl)cc1)Cc1ccc(Cl)cc1 [Compound 18] (H-[N(tridecyl)Gly][Gly(Nα-4-Cl-benzyl)][Nlys][Gly(N-2-aminoethyl)][Gly(Nα-4-Cl-benzyl)]-NH2)
- C. neoformans MIC [1]: 3.13 µg/mL

SMILES: CCCCCCCCCCCCCNCC(=O)N(CC(=O)N(CCCCN)CC(=O)N(CCN)CC(=O)N(CC(N)=O)Cc1ccc(Br)cc1)Cc1ccc(Br)cc1 [Compound 19] (H-[N(tridecyl)Gly][N(4-Br-benzyl)Gly][Nlys][Gly(N-2-aminoethyl)][N(4-Br-benzyl)Gly]-NH2)
- C. neoformans MIC [1]: 3.13 µg/mL

SMILES: CCCCCCCCCCCCCNCC(=O)N(CC(=O)N(CCCCN)CC(=O)N(CCN)CC(=O)N(CC(N)=O)Cc1ccc(I)cc1)Cc1ccc(I)cc1 [Compound 20] (H-[N(tridecyl)Gly][NBzl(4-I)Gly][Nlys][Gly(N-2-aminoethyl)][NBzl(4-I)Gly]-NH2)
- C. neoformans MIC [1]: 6.25 µg/mL

SMILES: CCCCCCCCCCCCCNCC(=O)N(CCc1c[nH]c2ccccc12)CC(=O)N(CCCCN)CC(=O)N(CCN)CC(=O)N(CCc1c[nH]c2ccccc12)CC(N)=O [Compound 23] (H-[N(tridecyl)Gly][Gly(N(CH2)2(3-indolyl))][Nlys][Gly(N-2-aminoethyl)][Gly(N(CH2)2(3-indolyl))]-NH2)
- C. neoformans MIC [1]: 1.56 to 3.13 µg/mL

SMILES: CCCCCCCCCCCCCNCC(=O)N(CC(=O)N(CCCCN)CC(=O)N(CCN)CC(=O)N(CC(N)=O)Cc1ccco1)Cc1ccco1 [Compound 24] (H-[N(tridecyl)Gly][NFurfurylGly][Nlys][Gly(N-2-aminoethyl)][NFurfurylGly]-NH2)
- C. neoformans MIC [1]: 3.13 to 6.25 µg/mL

SMILES: CCCCCCCCCCCCCNCC(=O)N(CC(=O)N(CCCCN)CC(=O)N(CCN)CC(=O)N(CC(N)=O)C1CCCCC1)C1CCCCC1 [RMG8-8] (H-[N(tridecyl)Gly][Gly(N-cHex)][Nlys][Gly(N-2-aminoethyl)][Gly(N-cHex)]-NH2)
- proteolytic stability [2]: proteolytically stable
- C. neoformans MIC [3]: 1.56 µg/mL
- HepG2 TD50 [4]: 189 µg/mL and 189 ± 43 µg/mL
- C. albicans MIC [5]: 25 µg/mL
- cLogD7.4 [6]: –2.38
- t1/2 of fungal killing [7]: 6.5 min
